Data on four molecules can be found in patent US20080227688A1, “Inhibition of viral replication” (priority 2007, published 2008).

Experiment [1] deals with reovirus. Format: cell-based, Dearing strain of reovirus serotype 3.
Experiment [2] deals with reovirus. Conditions: pharmacological inhibition of cellular cathepsin B; cited from earlier work.
The test system of experiment [3] is reovirus. The experiment in a line: Electron microscopy of reovirus-infected HT1080 cells. Format: cell-based, Dearing strain of reovirus serotype 3. Conditions: HT1080, MOI of 40, 20 μM, 48 hr post-infection. The method, then:
FIGS. 2A-2B: Electron microscopic analysis of reovirus infected HT1080 cells in the presence or absence of Z-FA-FMK treatment. HT1080 cells grown to 50-70% confluency were infected with reovirus at MOI of 40, then either Z-FA-FMK (20 μM) or control medium was added in the culture medium. After 48 hr culture, cells were prepared for electron microscopic examination as described in the Examples. (FIG. 2A) HT1080 infected with reovirus in the absence of Z-FA-FMK showing scattered virions and viral inclusions (factory) (arrows) in the perinuclear region. Scale represents 500 nm×10,000 (above). […] Scale represents 100 nm×80,000 (FIG. 2B) HT1080 infected with reovirus in the presence of Z-FA-FMK showing scattered reovirus virion particles (arrows) but no reoviral inclusions in the perinuclear region. Scale represents 500 nm×10,000 (above). Scattered virions with empty shell (arrows) are present in perinuclear region (bottom). Scale represents 200 nm×40,000.
EM preparation was performed by the University of Calgary Microscopy & Imaging Facility. Cells grown on glass slides were rinsed briefly with PBS (phosphate buffered saline) and fixed with 4% EM grade glutaraldehyde in 0.1 M cacodylate buffer (pH 7.4) for 1 hr at room temperature (RT). After washing three times with the same buffer, cells were post-fixed in 1% osmium tetroxide buffered with 0.1 M cacodylate for 1 hr at RT. […]

A further experiment deals with influenza A virus. As to the kind of experiment: Influenza A infection of Mv1Lu cells, FACS. Type of experiment: cell-based, Flu type A (A/New Cale/H1N1). The conditions noted are these: 20 μM, 4 days.
A further experiment deals with HIV type 1 virus. Format: cell-based, HIV type 1 strain (NL4-3).
Experiment [4] deals with reovirus. As to the kind of experiment: HT1080 tumor xenograft in SCID mice with intratumoral reovirus, immunohistochemistry of tumor and heart. Format: in vivo. Conditions: 0.02 mg intratumorally, 16 days post-viral injection. Here is the method:
FIGS. 4A-4B: Z-FA-FMK blocks reovirus infection in vivo. (FIG. 4A) HT1080 cells were injected subcutaneously into hind flanks of SCID mice. After palpable tumors were established (11 days after implantation), tumors were injected with Live reovirus (L Reo; n=5 tumors), UV-inactivated reovirus (D Reo; n=5 tumors), Z-FA-FMK (FA; n=5 tumors) and Live reovius suspended in Z-FA-FMK solution (Reo+FA; n=5 tumors). Tumor growth was measured externally using calipers. Z-FA-FMK was dissolved in DMSO and administered as 0.02 mg suspended in PBS intratumorally per mouse everyday up to 7 days post viral injection, and every 2 days until completion of the experiment. […] Paraffin sections of tumors and heart tissues were analyzed by indirect immunohistochemical staining using reovirus antiserum as described in the Examples. […]
SCID mice (6-8 weeks, Charles River, Wilmington, Mass.) received a single subcutaneous implantation of 5×10^6 cells of HT1080 cells suspended in PBS. […] Tumor growth was measured externally using calipers and the volume was determined by the equation V=(L×W^2)×0.5, where L is the largest dimension and W is the largest dimension perpendicular to L. Z-FA-FMK was dissolved in DMSO and administered as 0.02 mg suspended in PBS intratumorally per mouse every day up to 7 days post viral injection, and every 2 days until completion of the experiment. […]

In a further experiment the test system is myxoma virus. Type of experiment: cell-based, myxoma virus (strain Lausanne).
The target of a further experiment is cellular cathepsin B (Homo sapiens, UniProt P07858). Conditions: cited from earlier work.

“Also recorded” adds a separate entry of the source. *1 amine or outer side, *2 acyl side, *3 side chain or, on linkers, in order; H or OH if unused. Where a SMILES comes first, the peptide text is derived from it. [ ]: non-standard residue; d: D form. The star is where a group is joined. hPhe = N[CH](CCc1ccccc1)C(=O)O; Morpholide = C1CN(*)CCO1; CO = O=C([*:1])[*:2]; CH2F = FC*

On to `O=C(CF)C(CCc1ccccc1)NC(=O)C(Cc1ccccc1)NC(=O)N1CCOCC1` (stereo not drawn) [Mu-FhF-FMK, N-Morpholineurea-phenylalanyl-homophenylalanyl-fluoromethylketone] ({Morpholide-CO}-Phe-[hPhe]-CH2F; configuration not given here), for which the reovirus-mediated cytopathogenicity entry in the experiment on reovirus [1] is reported as “effectively inhibited reovirus-mediated cytopathogenicity”.
Same read-out and setting: the value for “Z-Val-Ala-Asp-fluoromethylketone [Z-VAD-FMK]” was “effectively inhibited reovirus-mediated cytopathogenicity”.
Take `CCCNC(=O)[C@H]1O[C@@H]1C(=O)N[C@H](C(=O)N1CCC[C@H]1C(=O)OC)[C@@H](C)CC` [CA-074Me]: the reovirus viral yield entry with reovirus [2] is on record as “decreased viral yields yet not a complete blockage of viral yield”.
In the case of `C[C@H](NC(=O)[C@H](Cc1ccccc1)NC(=O)OCc1ccccc1)C(=O)CF` [Z-FA-FMK, N-benzyloxycarbonyl-Phe-Ala-fluoromethylketone], in the experiment with reovirus [1], the “reoviral replication potential by FACS (reoviral antigen)” value is on record as “effectively suppressed reoviral replication potential in a dose-dependent manner”; the “reovirus replication (cytopathic morphology, viral antigens by western blotting and FACS)” value is “completely blocked reovirus replication”. In addition, in the experiment with reovirus [3], the “viral factory formation (EM)” value is listed as “did not form these viral factories” and the “virion morphology (EM)” value is on record as “all of the scattered viral particles contained empty capsids”. Also, in the experiment with influenza A virus, the “viral replication activity of influenza A” value is “did not affect viral replication activity”. Besides, the “viral replication activity of HIV-1” value in the experiment on HIV type 1 virus is listed as “did not affect viral replication activity”. Also, in the experiment with reovirus [4], the “reovirus replication activity in heart tissue (immunohistochemistry)” value is on record as “effectively blocked” and the “reovirus replication activity in tumor tissue (immunohistochemistry)” value is given as “effectively blocked”. In the experiment on myxoma virus, the “GFP expression level of BGMK monolayers” value was “significantly suppressed”, the “myxoma infectivity (GFP expressing cells)” value is listed as “inhibitory effects were not detectable” and the “myxoma virus foci development” value is listed as “significantly suppressed as Z-FA-FMK dosages were increased; also recorded: the inhibition of foci development is more readily detectable”. In addition, the “inactivation of cathepsin B” value at cellular cathepsin B is reported as “potent inactivator of cellular cathepsin B”.
